Target: T1, 5HT6 human recombinant receptor (Homo sapiens, UniProt P50406)
T1 construct: purchased Receptor Biology; host or cells: HEK-293 cell membranes
Assay: Binding with Serotonin Receptor 5HT6 ([3H]-LSD radioligand, HEK-293 cell membranes)
Settings: [3H]-LSD 2.7 nM, HEK-293 membranes; for Ki: non-linear regression EBDA/LIGAND; for inhibition at 0.01 µM: compound 10 nM; for inhibition at 0.01 µM / inhibition at 0.1 µM: 60 min, 37° C.; for inhibition at 0.1 µM: compound 100 nM
Procedure: Binding with Serotonin Receptor 5HT6
Cell membranes of HEK-293 cells expressing the 5HT6 human recombinant receptor were supplied by Receptor Biology. In said membranes the receptor concentration is 2.18 pmol/mg protein and the protein concentration is 9.17 mg/ml. The experimental protocol follows the method of B. L. Roth et al. [B. L. Roth, S. C. Craigo, M. S. Choudhary, A. Uluer, F. J. Monsma, Y. Shen, H. Y. Meltzer, D. R. Sibley: Binding of Typical and Atypical Antipsychotic Agents to 5-Hydroxytryptamine-6 and Hydroxytriptamine-7 Receptors. The Journal of Pharmacology and Experimental Therapeutics, 1994, 268, 1403] with slight changes. The commercial membrane is diluted (1:40 dilution) with the binding buffer: 50 mM Tris-HCl, 10 mM MgCl2, 0.5 mM EDTA (pH 7.4). The radioligand used is [^3H]-LSD at a concentration of 2.7 nM with a final volume of 200 μl. incubation is initiated by adding 100 μl of membrane suspension, (≈22.9 μg membrane protein), and is prolonged for 60 minutes at a temperature of 37° C. The incubation is ended by fast filtration in a Brandel Cell Harvester through fiber glass filters made by Schleicher & Schuell GF 3362 pretreated with a solution of polyethylenimine at 0.5%. The filters are washed three times with three milliliters of buffer Tris-HCl 50 mM pH 7.4. The filters are transferred to flasks and 5 ml of Ecoscint H liquid scintillation cocktail are added to each flask. The flasks are allowed to reach equilibrium for several hours before counting with a Wallac Winspectral 1414 scintillation counter. Non-specific binding is determined in the presence of 100 μM of serotonin. Tests were made in triplicate. The inhibition constants (Ki, nM) were calculated by non-linear regression analysis using the program EBDA/LIGAND [Munson and Rodbard, Analytical Biochemistry, 1980, 107, 220].

T1 sequence (P50406 whole entry): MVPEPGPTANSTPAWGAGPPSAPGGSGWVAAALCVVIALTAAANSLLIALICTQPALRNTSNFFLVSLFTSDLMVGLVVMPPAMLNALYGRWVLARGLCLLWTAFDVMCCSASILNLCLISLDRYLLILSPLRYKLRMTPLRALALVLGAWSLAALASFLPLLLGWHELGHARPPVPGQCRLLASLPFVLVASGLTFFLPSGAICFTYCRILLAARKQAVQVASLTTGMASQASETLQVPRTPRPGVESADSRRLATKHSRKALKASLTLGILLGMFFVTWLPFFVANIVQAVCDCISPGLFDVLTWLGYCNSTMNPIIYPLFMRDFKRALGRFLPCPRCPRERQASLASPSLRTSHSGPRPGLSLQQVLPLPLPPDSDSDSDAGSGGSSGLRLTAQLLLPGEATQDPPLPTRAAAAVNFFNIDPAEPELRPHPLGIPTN

| Compound | Ki | inhibition at 0.01 µM | inhibition at 0.1 µM |
| --- | --- | --- | --- |
| CNCCc1c[nH]c2ccc(NS(=O)(=O)c3ccc4c(Cl)cccc4c3)cc12 [Example 4, 5-Chloro-naphthalene-2-sulfonic acid [3-(2-methylamino-ethyl)-1H-indol-5-yl]-amide] | 2.1 ± 1.3 nM | 64.9% | 73.5% |
| NCCc1c[nH]c2ccc(NS(=O)(=O)c3cccc4ccccc34)cc12 [Example 5, Naphthalene-1-sulfonic acid [3-(2-amino-ethyl)-1H-indol-5-yl]-amide] | 26.4 nM | 41.6% | 76.9% |
| NCCc1c[nH]c2ccc(NS(=O)(=O)c3ccc4ccccc4c3)cc12 [Example 7, Naphthalene-2-sulfonic acid [3-(2-amino-ethyl)-1H-indol-5-yl]-amide] | 7.1 ± 1.1 nM | 66% | 84.6% |
| CCNCCc1c[nH]c2ccc(NS(=O)(=O)c3cccc4ccccc34)cc12 [Example 1, Naphthalene-1-sulfonic acid [3-(2-ethylamino-ethyl)-1H-indol-5-yl]-amide] | 3 nM |  |  |
| CNCCc1cn(C)c2ccc(NS(=O)(=O)c3ccc4c(Cl)cccc4c3)cc12 [Example 6, 5-Chloro-naphthalene-2-sulfonic acid [1-methyl-3-(2-methylamino-ethyl)-1H-indol-5-yl]-amide] |  | 39.7% | 79.8% |
| Cn1cc(CCN)c2cc(NS(=O)(=O)c3ccc4c(Cl)cccc4c3)ccc21 [Example 9, 5-Chloro-naphthalene-2-sulfonic acid [3-(2-amino-ethyl)-1-methyl-1H-indol-5-yl]-amide] |  | 34.1% | 78% |
| CNCCc1c[nH]c2ccc(NS(=O)(=O)c3cccc4ccccc34)cc12 [Example 2, Naphthalene-1-sulfonic acid [3-(2-methylamino-ethyl)-1H-indol-5-yl]-amide] | 2.9 nM | 83% | 91.2% |
| CCNCCc1c[nH]c2ccc(NS(=O)(=O)c3ccc4c(Cl)cccc4c3)cc12 [Example 3, 5-Chloro-naphthalene-2-sulfonic acid [3-(2-ethylamino-ethyl)-1H-indol-5-yl]-amide] | 2 nM | 60.1% | 82.9% |
| NCCc1c[nH]c2ccc(NS(=O)(=O)c3ccc4c(Cl)cccc4c3)cc12 [Example 8, 5-Chloro-naphthalene-2-sulfonic acid [3-(2-amino-ethyl)-1H-indol-5-yl]-amide] | 1.4 nM | 65.6% | 86.1% |

Reference: patent US20100120886A1, “ARYL-SUBSTITUTED SULFONAMIDES FOR THE TREATMENT OF COGNITIVE OR FOOD INGESTION RELATED DISORDERS” (LABORATORIOS DEL DR. ESTEVE, S.A., priority 2007, published 2010)
